# Patent US20020197281A1, “Composition cantaining a peptide and a pigment and the use thereof in darkening the skin” (priority 2001, published 2002)
# Tests used:
# [1] = system: keratinocyte-melanocyte co-cultures (Human HaCaT keratinocytes, Human primary melanocytes); test: Induced pigmentation in keratinocyte-melanocyte co-cultures (DOPA staining, computerized image analysis); type: cell-based; details: three daily treatments; for Mean area: DOPA-stained relative pigmented area; for % increase: normalized to control
# Protocol: The peptides Peptide 1 and Peptide 3 and various pigments were tested, alone or in combination, with keratinocyte-melanocyte cultures for their effect on cell pigmentation, using DOPA staining and computerized image analysis. The pigments that were tested were the pigmented natural extracts Bearberry extract from Alban Muller International (Vincennes, France) and Hedychium spicatum extract sold as Kapur Kachali from Amsar Private Limited (Indore, India), copper chloride from Sigma (St. Louis, Mo.) and the water-soluble melanin derivatives Melasyn-100™ from San-mar laboratories, Inc. (Elmsford, N.Y.) and MelanZe™ from Zylepsis (Ashford, Kent, United Kingdom). The pigments were tested at concentrations ranging from 0.0001%(W/V) to 1%(W/V) and the peptides were tested at 50 μM.
# The assay was conducted in the following manner. Human HaCaT keratinocytes (Boukamp P., et al., J Cell Biol 106, 3, 761-771 (1988)) were maintained in Dulbecco's Modified Eagle's Medium (DMEM) containing 10% fetal bovine serum (FBS), 4.5 mg/ml glucose, 2 mM L-glutamine, 50 U/ml penicillin and 50 μg/ml streptomycin (Life Technologies, Gaithersburg, Md.). Cells were maintained at <80% confluency in 5% CO2 (v/v) and were used in experimental procedures up to culture passage 15. Human primary melanocytes (Clonetics, San Diego, Calif. or Cascade Biologics, Portland, Oreg.) were maintained according to manufacturer's instructions. To establish keratinocyte-melanocyte co-cultures, 6×10^4 melanocytes were plated in each well of a 24 well plate and maintained according to manufacturer's instructions.
# Melanocytes were rinsed three times with melanocyte growth media without PMA and keratinocytes (6×10^4) were plated to establish the co-cultures in this media. Co-cultures were treated for three days with test peptides and pigments, and assayed for cell viability and pigment level on the forth day. Cell viability was assayed using alamarBlue™ (Acumed International, West Lake, Ohio) following manufacturer's instructions. No change in viability was observed following three daily treatments with all tested material. All in vitro experiments were performed in triplicates, and were repeated at least three times.
# Following three daily treatments, the co-cultures were briefly fixed (10% buffered formalin from Fisher Scientific, 15 minutes), washed three times with Phosphate-buffered saline (PBS, from Life Technologies) and stained with L-3,4-Dihydroxyphenylalanine (DOPA, from Sigma, St. Louis, Mo.) 0.1% in PBS, for 5 hours at 37° C., followed by two PBS washes and formalin (10%, overnight) fixation. DOPA is a substrate for tyrosinase, therefore an increase in staining represents increased tyrosinase activity and pigment production. DOPA-stained monolayers were used for image analysis. All images were obtained and analyzed with Image Pro Plus 3.0 software (Media Cybernetics, Silver Spring, Md.). Parameters measured were surface area of stained material within melanocyte and keratinocytes and the total surface area of the cells in the culture, and the relative pigmented area was calculated. A value of 100% was assigned to untreated controls, and values of treatment groups were normalized to their relevant controls. In all experiments there was no difference between PBS-treated cells and untreated controls. Data are presented with standard deviation (SigmaPlot® 5.0, SPSS Science, Chicago, Ill.).
# Forskolin (Sigma, St. Louis, Mo.), a known inducer of pigmentation, served as a positive control and a reference point. Forskolin was administered at 1% (W/V).
# [2] = system: Dark skinned Yucatan microswine; test: Induced pigmentation in vivo, F&M-stained skin sections of topically treated swine; set-up: key: −1: Slight lightening; 0: No change; 1: Minimal increase in pigment deposition; 2: Increased pigment deposition; 3: Strong increase in pigment deposition, some increase in caps; 4: Strong increase in pigment deposition, strong increase in caps; details: topical twice a day, five days/week, eight or nine weeks; peptides 250 or 500 μM, pigments 1% or 5% (W/V), positive controls 1% (W/V); average of all sites of responsive swine
# Protocol: Compositions of the present invention were tested for their ability to induce in vivo pigmentation in skin cells in the following experiment. Dark skinned Yucatan microswine (Charles River, Portland, Me.) were housed in appropriately sized cages in an environmentally controlled room with a 12-hour light-12-hour dark photoperiod and supplied with food and water ad libitum. Animal care was based on the “Guide for the Care and Use of Laboratory Animals”, NIH Publication No. 85-23. Twenty μl of test peptides were applied topically, twice a day, five days/week, for eight or nine weeks, on the dorsum of the swine. Treatments of individual swine were always arranged in a head to tail order on one side, and in a tail to head order on the other side of the animal. Biopsies were taken using standard techniques.
# Sections from the skin biopsies were stained with Hematoxylin and Eosin (H&E), or with Fontana-Mason (F&M), using standard procedures (Sheenan D C, Hrapckak B B, eds., Theory and Practice of Histo-technology. p. 223, 277, The C.V. Mosby Co., St. Louis (1980)). F&M staining identifies silver nitrate reducing molecules. In skin, this non-specific stain identifies primarily melanin. At least three sections per biopsy were processed. Each experiment was repeated at least three times.
# Swine were treated with either: the known skin darkening agent forskolin (Sigma) or with a Coleus forskoli extract (ATZ Naturals, Englewood Cliffs, N.J.) which contains forskolin, as a positive control at 1% (W/V); pigments at 1% or 5% (W/V); peptides of this invention at 250 μM or 500 μM; and combinations of such peptides at 250 μM or 500 μM with pigments at 1% (W/V). Pigments tested include pigmented natural extracts (i.e., Bearberry extract and Hedychium spicatum extract) and synthetic compounds (i.e., the soluble melanin compound Melasyn-100™). These test compounds were dissolved in ethanol: propylene glycol 70:30 (v/v). […]
# F&M-stained histological skin sections were evaluated for the change in pigment deposition within the treated site. […]
compound,measurement,setting,value
"[Cl][Cu][Cl] [CuCl2, copper chloride]",Mean area,[1]; pigment alone 0.001% (W/V),0.064
same,% increase,[1]; pigment alone 0.001% (W/V),220%
"C=C[C@@]1(C)CC(=O)[C@]2(O)[C@@]3(C)[C@@H](O)CCC(C)(C)[C@@H]3[C@H](O)[C@H](OC(C)=O)[C@@]2(C)O1 [Forskolin, reference compound]",Mean area,[1]; positive control 1% (W/V),0.067
same,% increase,[1]; positive control 1% (W/V),231.0%
same,Score (change in pigment deposition),[2],1
H2-Leu-Ile-Gly-Arg-NH2 (H-LIGR-NH2) [Peptide 1],Mean area,[1]; peptide alone 50 μM,0.080
same,% increase,[1]; peptide alone 50 μM,279%
same,Score (change in pigment deposition),[2],1-2
H2-Ser-Leu-Ile-Gly-Arg-Leu-NH2 (H-SLIGRL-NH2) [Peptide 3],Score (change in pigment deposition),[2],2-3
